# PMC12864978, “Covalent modification of a glutamic acid inspired by HaloTag technology” (Nature Communications, 2026)
# Tests used:
# [1] = biological target: T1, PDEδ in the presence of Arl2•GppNHp (Homo sapiens, UniProt O43924); assay: Kinetics of covalent modification of PDEδ by MALDI in the presence of Arl2•GppNHp; format: binding; conditions: PDEδ: Arl2•GppNHp = 1:1, 3 eq. of 6a
# T1 construct: His tag; made in house; host or cells: Escherichia coli Rosetta (BL21DE3), pET plasmids
# Source text: (§1) Data are presented as mean ± s.e.m.
# (§2) The solution was briefly centrifuged before a sample was taken at the designated time for analysis by MALDI. […] Mass spectra were obtained over the m/z range 15,000–25,000 using a Bruker UltrafleXtreme XIAL DI-TOF/TOF mass spectrometer. Percentages of covalent adduct formation were estimated by the relative intensity of the respective peaks in MALDI spectra.
# [2] = GSH adduct formation (stability in the presence of GSH); format: physicochemical; conditions: phosphate buffer with 10 mM GSH; 10-fold excess of GSH at 10 mM, phosphate buffer pH 7.4, 37 °C; read-out: half-life for GSH adduct formation t1/2 GSH (converted)
# Experimental: Compound (1 mM) was incubated with the respective buffers (HEPES 20 mM, 150 mM NaCl, pH = 7.5; 0.2 M sodium acetate buffer, pH = 5.6; 0.2 M sodium citrate buffer, pH = 6.2; 0.2 M potassium phosphate buffer, pH = 7.4, 1 mM EDTA, with or without 10 mM GSH), with 1% DMSO adjusted for all conditions. […] Per cent (%) compound remaining in the solution was estimated by the ratio of areas under the curve, and data plotted were fitted to pseudo-1st kinetics in the calculation of rate constants (k) and half-lives (t1/2), where k is the negative slope of a linear regression of In (% compound remaining) over time. Half-lives (t1/2) in respective buffers and half-lives for GSH adduct formation (t1/2 GSH) were calculated with the following equations:1 t1/2=In2/k 2 kGSH=ktotalconsumptioninphosphatebufferinpresenceofGSH−k(phosphatebufferinabsenceofGSH) 3 t1/2GSH=In2/k(GSH) […]
# a, Percentage (%) of compound remaining was monitored by HPLC-MS and data was fitted to pseudo-first kinetics in calculation of rate constants (k) and half-lives (t1/2) in respective buffers, where k is the negative slope of a linear regression of In (% compound remaining) over time and t 1/2 = In2/k. Initial […]
# Initial GSH concentration =
# PDEδ in Jurkat cells = biological target: T2, PDEδ in Jurkat cells (Homo sapiens, UniProt O43924); assay: CETSA in intact cells (in-cell CETSA); format: cell-based; conditions: 15 min at 37 °C
# T2 construct: host or cells: Jurkat
# Experimental: Cells were collected and resuspended in cold PBS and further washed thrice in cold PBS. […] Afterwards, NP40 alternative was added to a final concentration of 0.4% (v/v), and cells were lysed by five consecutive freeze/thaw cycles. […] Supernatants were transferred to new tubes, and equal volumes of each sample were loaded on an SDS-PAGE gel and subjected to immunoblot analysis.
# HAP1 PDEδ knockout cells = assay: Relative growth after 72 h; format: cell-based; conditions: 0 - 50 µM
# Experimental: Real-time cell analysis (RTCA) was conducted using an Incucyte S3 live-cell analysis system (Sartorius AG, Germany). […] Following attachment overnight, the medium was replaced with fresh medium containing test compounds, with all conditions adjusted to contain 0.5% DMSO. […] Phase-contrast images (2 images per well) were automatically captured at 2-h intervals until control wells (DMSO-treated) reached full confluency. Cell growth was quantified using the instrument’s integrated Basic Analyser module by applying a confluence mask to calculate the percentage of phase area confluence. […] Dose-response curves were generated and fitted via four-parameter variable slope nonlinear regression to determine cellular IC₅₀ values.
# PDEδ [3] = biological target: T3, PDEδ (Homo sapiens, UniProt O43924); assay: In-cell covalent modification of PDEδ (immunoblot); conditions: 2 h
# [4] = biological target: PDEδ in Jurkat cell lysates (Homo sapiens, UniProt O43924); assay: In-lysate covalent modification of PDEδ (anti-PDEδ immunoblot band shift)
# Source text: Relative band intensities were quantified using Image Lab (BIO-RAD).
# PDEδ [5] = biological target: T3, PDEδ; assay: Covalent modification of PDEδ by MALDI mass spectrometry; format: binding; design: His tag; made in house; host or cells: Escherichia coli Rosetta (BL21DE3), pET plasmids
# Experimental: as §2
# 1. Supplementary Figures and Tables
# PDEδ (20 µM) was incubated with compounds (60 µM) in HEPES
# Percentages of covalent adduct formation were estimated by the relative intensity of the respective peaks in MALDI spectra. Data are presented as mean ± s.e.m.
# Apparent pseudo -first order kobs was estimated by percentages of covalent adduct formation at 2 hours by MALDI. Plot of kobs (h-1) against concentration (µM) was fitted by GraphPad […]
# Prism Michaelis-Menten model and separate values for kinact and KI were obtained to calculate apparent […]
# PDEδ (20 µM) was incubated with
# as §1
# HEPES buffer, n = 3 for the rest). One-way ANOVA with matched time-points, with Geisser-
# Chain of PDEδ in Jurkat cell lysates (O43924 whole entry): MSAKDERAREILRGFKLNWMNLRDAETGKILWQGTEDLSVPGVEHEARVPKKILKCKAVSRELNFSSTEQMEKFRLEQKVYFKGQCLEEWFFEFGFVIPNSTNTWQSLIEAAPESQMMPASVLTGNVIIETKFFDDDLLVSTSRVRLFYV
# T3 sequence (O43924 whole entry): as above
# T1 sequence (O43924 whole entry): as above
# T2 sequence (O43924 whole entry): as above
smiles,measurement,setting,value
Cc1ccc(-n2nc3c(=O)n(CCCCS(=O)(=O)N(CCc4cccc(CCBr)c4)CC4CCNCC4)nc(C)c3c2C)cc1 [6a],rate of covalent PDEδ modification in the presence of Arl2•GppNHp,[1],comparable rate
same,half-life at 1 mM,[2],43.1 days
same,ΔTm at 10 µM,PDEδ in Jurkat cells,9.3 ± 0.2 °C
same,growth impairment of HAP1 PDEδ knockout cells compared to HAP1 wild type cells,HAP1 PDEδ knockout cells,less pronounced
same,in-cell covalent modification of PDEδ,PDEδ [3],covalent binding of DeltaTag (6a) to PDEδ within 2 h
same,in-lysate covalent modification of PDEδ on anti-PDEδ immunoblot,[4]; 10 µM for 2 h,upward shift of the band indicates covalent binding
same,Estimated % PDEδ labelling,"[4]; 10 µM, 15 min",33%
same,Estimated % PDEδ labelling,"[4]; 10 µM, 15 min, listed as DeltaTag",approximately 33%
same,Estimated % PDEδ labelling,"[4]; 10 µM, 30 min",55%
same,Estimated % PDEδ labelling,"[4]; 10 µM, 60 min",60%
same,time to estimated full labelling of PDEδ,"[4]; 50 µg cell lysates, 10 µM",≤ 2 h
same,KI,PDEδ [5]; Michaelis-Menten fit of kobs,464.9 µM
same,covalent modification of PDEδ in different solvents,"PDEδ [5]; buffers of various pH, 8 h and 24 h",pH-independent
same,% labelling at 24 h,"PDEδ [5]; representative MALDI spectrum, Fig. 2c",100%
